Several values for one entry are separate records, joined by “and”; a condition that tells them apart may be missing. Identical values can stand only once.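 Interpolation was linear, between the two tested concentrations surrounding the appropriate level; five concentrations were tested over 48 hours in 96-well plates. GI50 marks 50% less growth. TGI: total growth inhibition.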 Where a SMILES comes first, the peptide text is derived from it. The star is where a group is joined. Trt = c1ccc(C(c2ccccc2)(c2ccccc2)*)cc1; Cbz = O=C(OCc1ccccc1)*

What all share (experiment): growth of human tumour cells (NCI), 48 h
In experiment [1] the test system is A549 NSCLC.
Experiment [2] concerns KM12 colon.
Experiment [3] concerns MOLT-4 leukemia.
For experiment [4], the system named is NCI-H23 lung.
Experiment [5] has as its system PC-3 prostate.
The subject of experiment [6] is RPMI-8226 leukemia.
For experiment [7], the system named is RXF 393 renal.
The test system of experiment [8] is SF-268 CNS.
In experiment [9] the test system is SF-539 CNS.
Experiment [10] concerns SNB-75 CNS.

`O=C(/C=C/c1ccc([N+](=O)[O-])cc1)c1cccc(Nc2nc(Nc3ccccc3)nc(Nc3ccccc3)n2)c1`: the GI50 was 25 µM in experiment [1]; 5.04 µM in [2]; 2.6 µM in [3]; 17.5 µM in [4]; 3.15 µM in [5]; 1.66 µM in experiment [6]. Besides, the GI50 in experiment [7] is 5.99 µM; in experiment [8], 17.6 µM; in [9], 12.7 µM; in experiment [10] it was 4.52 µM. For the same compound, the TGI in experiment [1] is greater than 100 µM; in experiment [2], 29.5 µM; in experiment [3], 20 µM; in experiment [4], 98.3 µM; in experiment [5], 30.7 µM; in experiment [6], 6.31 µM. Besides, the TGI in [7] is 30.1 µM; in experiment [8], greater than 100 µM; in experiment [9], 35.5 µM; in experiment [10] it was 94.8 µM.

`N#C/C(=C\c1ccc2[nH]ccc2c1)C(=O)c1ccc(O)c(O)c1`: the TGI in [1], in [2], in experiment [3], in experiment [4], in [5] and in experiment [6] was greater than 100 µM each time. The TGI in experiment [7], in experiment [8], in experiment [9] and in experiment [10] was greater than 100 µM in each case.

For `CCOC(=O)c1c(C)n(Cc2ccccc2)c2c1cc1oc(=O)c(=O)n3cnc2c13`, the GI50 in experiment [1] is 13.6 µM; in [2], 19.2 µM; in experiment [3], 8.47 µM; in [4], 14.4 µM; in experiment [5], 10.3 µM; in experiment [6], 1.86 µM. Further, the GI50 in experiment [7] is 16 µM; in [8] it was 15.3 µM; in [9], 14.5 µM; in experiment [10], 28.5 µM. The TGI was 45.7 µM in experiment [1]; greater than 50 µM in experiment [2]; greater than 50 µM in [3]; greater than 50 µM in experiment [4]; greater than 50 µM in experiment [5]; 14.1 µM in experiment [6]. In addition, the TGI is greater than 50 µM in experiment [7], greater than 50 µM in experiment [8], 37.8 µM in experiment [9] and greater than 50 µM in experiment [10].

With `O=S(=O)(O)SCCNCCCCCC1CCCCC1`, the TGI in experiment [1] is 23 µM; in [2] it was 7.76 µM; in experiment [3], greater than 31 µM; in experiment [4] it was 27.5 µM; in experiment [5], 22.7 µM; in experiment [6], 42.1 µM. Further, the TGI was determined as 38 µM in [7], 23.5 µM in [8], 19.6 µM in experiment [9] and 16.3 µM in [10].

For the compound `O=C1/C(=C\c2ccccc2)C2OCC=C3CN4CCC56c7ccccc7N1C5C2C3CC46` (stereo not given), the GI50 in experiment [1] is greater than 100 µM; in experiment [2], 34.4 µM; in experiment [3], 7.23 µM; in experiment [4], greater than 100 µM; in experiment [5], 18 µM; in experiment [6], 5.54 µM. In addition, the GI50 in [7] was 35.8 µM; in experiment [8], 79.3 µM; in [9], 61.9 µM; in experiment [10], 14.7 µM. For the same compound, the TGI in experiment [1], in experiment [2], in [3], in [4], in experiment [5] and in [6] was greater than 100 µM each time. In addition, the TGI in experiment [7], in [8], in experiment [9] and in experiment [10] was greater than 100 µM each time.

On to `Cn1cc(-c2nc(N[C@@H]3CCCC[C@@H]3N)c(F)c3c2C(=O)NC3)cn1`, for which the GI50 was 6.47 µM and 9.22 µM in experiment [1]; 0.458 µM and 0.452 µM in experiment [2]; 4.74 µM and 6.87 µM in experiment [3]; 5.58 µM and 5.83 µM in experiment [4]; 9.43 µM and 13.3 µM in experiment [5]; 26.2 µM and 29.1 µM in experiment [6]. In addition, the GI50 was 1.99 µM and 2.47 µM in [7]; 5.42 µM and 6.7 µM in experiment [8]; 2.81 µM and 3.16 µM in experiment [9]; 2.14 µM and 2.87 µM in experiment [10]. Further, the TGI in experiment [1] is 75.5 µM and 81.1 µM; in [2], greater than 100 µM; in experiment [3] it was > 80.2 µM and 98.9 µM; in experiment [4], 48.7 µM and > 63.7 µM; in [5], greater than 100 µM; in experiment [6], greater than 100 µM. Also, the TGI in experiment [7] was 10.5 µM and 12.5 µM; in experiment [8], greater than 100 µM; in [9], 13.9 µM and 16.1 µM; in [10], 11.7 µM and 16.5 µM.

As to `COc1ccc2c(c1)/C(=N/OC(C)=O)c1c-2cnc2ccccc12`, the GI50 is 27.4 µM in experiment [1]; 25 µM in experiment [2]; 20 µM in [3]; 46.6 µM in experiment [4]; 21.3 µM in experiment [5]; 22.3 µM in experiment [6]. For the same compound, the GI50 in experiment [7] was 26.4 µM; in experiment [8], 24 µM; in [9] it was 41.9 µM; in experiment [10], 37.4 µM. In addition, the TGI in [1] is 73.8 µM; in experiment [2], 78.7 µM; in [3], 92.2 µM; in experiment [4], greater than 100 µM; in experiment [5], 48 µM; in [6], 81.5 µM. Besides, the TGI in experiment [7] is 68.5 µM; in experiment [8], 68.7 µM; in [9], greater than 100 µM; in experiment [10], greater than 100 µM.

As for `COC(=O)C(CSC(c1ccccc1)(c1ccccc1)c1ccccc1)NC(=O)C(CC(N)=O)NC(=O)OCc1ccccc1` (stereo not drawn) (Cbz-Asn-Cys(Trt)-OMe; configuration not given here), the GI50 in experiment [1] is 4.38 µM; in [2], 4.62 µM; in [3], 2.1 µM; in experiment [4] it was 5.73 µM; in [5] it was 3.57 µM; in [6] it was 2.29 µM. In addition, the GI50 was 3.17 µM in [7], 3.08 µM in experiment [8], 1.68 µM in experiment [9] and 5.43 µM in [10]. Further, the TGI in experiment [1] is 51.7 µM; in experiment [2] it was 17 µM; in experiment [3], 5.2 µM; in experiment [4], 22.6 µM; in [5] it was 17.2 µM; in experiment [6] it was 5.93 µM. The TGI in experiment [7] was 13.5 µM; in [8], 13.2 µM; in experiment [9], 5.49 µM; in [10], 24.6 µM.

The record behind these values is PubChem BioAssay (NCI).
